The source of these data is US9561231B2 (AbbVie Inc., priority 2012, dated 2017).

SMILES strings stand for the structures.

In experiment [1] the target is T1, first (BD1: amino acids K57-E168) bromodomain of BRD4 (Homo sapiens, UniProt O60885).
T1 construct: His-tagged first (BD1: amino acids K57-E168)
Kind of experiment: TR-FRET bromodomain binding assay, BRD4 BD1. The settings on record: TR-FRET assay protocol (A-G, compound concentration range); Ki calculated from IC50, probe Kd and probe concentration; read-out: TR-FRET Binding Ki: BRD4 (BDI_K57-E168). In short, it runs like this: (§1)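 His-tagged BRD4 BD1 (K57-E168) or BD2 ([…]) displacing an Alexa647-labelled BET-inhibitor probe in 20 mM sodium phosphate pH 6.0, 50 mM NaCl, 1 mM EDTA, 0.01% Triton X-100, 1 mM DTT.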

Experiment [2] concerns the target T2, second (BD2: amino acids E352-E168) bromodomain of BRD4 (Homo sapiens, UniProt O60885).
T2 construct: protocol
The experiment is described as follows: TR-FRET bromodomain binding assay, BRD4 BD2. The note with it: TR-FRET assay protocol (A-G, compound concentration range); Ki calculated from IC50, probe Kd and probe concentration; read-out: TR-FRET Binding Ki: BRD4 (BDII_E352-M457). In short, it runs like this: as §1

For experiment [3], the system named is breast cancer cell line MX-1. The experiment is described as follows: MX-1 cell line proliferation assay (3-day). It counts as cell-based. The note with it: Homo sapiens, MX1; MX-1 cells, 72 h incubation, Cell Titer Glo; read-out: Cellular proliferation: EC50. In a few lines:
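MX-1 cells in RPMI/10% FBS, plated 5000/well overnight, then exposed to compound at final 3 to 0.0001 μM (3-fold series) for 3 days at 37° C. Cell Titer Glo luminescence normalized to DMSO-treated cells; EC50 from sigmoidal curve fit.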

As usually defined, the Ki is a measure of affinity in units of concentration, obtained from inhibition or displacement. Regarding `CNS(=O)(=O)Nc1ccc(Oc2ccccc2)c(-c2ccc(=O)n(C)c2)c1` [Example 230, N-methyl-N′-[3-(1-methyl-6-oxo-1,6-dihydropyridin-3-yl)-4-phenoxyphenyl]sulfuric diamide], the Ki in experiment [1] is 56 nM; in experiment [2], 48 nM. Besides, the EC50 in experiment [3] is 395 nM.

Regarding `Cn1cc(-c2cc(NS(C)(=O)=O)ccc2Oc2ccc(C(F)(F)F)cc2)ccc1=O` [Example 231, N-{3-(1-methyl-6-oxo-1,6-dihydropyridin-3-yl)-4-[4-(trifluoromethyl)phenoxy]phenyl}methanesulfonamide], the results for the inhibitory constant (Ki) in experiment [1] and in experiment [2] were 44.6 nM and 539 nM, respectively. Further, the EC50 in experiment [3] amounted to 911 nM.

Take `Cn1cc(-c2cc(NS(C)(=O)=O)ccc2Oc2ccc(F)cc2)ccc1=O` [Example 232, N-[4-(4-fluorophenoxy)-3-(1-methyl-6-oxo-1,6-dihydropyridin-3-yl)phenyl]methanesulfonamide]: the figures for the Ki in experiment [1] and in experiment [2] were 27.8 nM and 101 nM, respectively. Besides, in experiment [3], the EC50 is 357 nM.

With `Cn1cc(-c2cc(NS(C)(=O)=O)ccc2Oc2cccnc2)ccc1=O` [Example 234, N-[3-(1-methyl-6-oxo-1,6-dihydropyridin-3-yl)-4-(pyridin-3-yloxy)phenyl]methanesulfonamide], the Ki is 21.3 nM in experiment [1] and 216 nM in experiment [2]. Also, the EC50 in experiment [3] was 1290 nM.

With `Cn1cc(-c2cc(NS(C)(=O)=O)ccc2Oc2ccccc2C(F)(F)F)ccc1=O` [Example 236, N-{3-(1-methyl-6-oxo-1,6-dihydropyridin-3-yl)-4-[2-(trifluoromethyl)phenoxy]phenyl}methanesulfonamide], the inhibitory constant (Ki) is 14.2 nM in experiment [1] and 81.6 nM in experiment [2]. Also, in experiment [3], the EC50 was 501 nM.

Turning to `Cn1cc(-c2cc(NS(C)(=O)=O)ccc2Oc2ccccc2C#N)ccc1=O` [Example 237, N-[4-(2-cyanophenoxy)-3-(1-methyl-6-oxo-1,6-dihydropyridin-3-yl)phenyl]methanesulfonamide], the Ki in experiment [1] was 16.2 nM; in experiment [2], 227 nM. In experiment [3], the EC50 came out at 1380 nM.

Regarding `COc1ccccc1Oc1ccc(NS(C)(=O)=O)cc1-c1ccc(=O)n(C)c1` [Example 238, N-[4-(2-methoxyphenoxy)-3-(1-methyl-6-oxo-1,6-dihydropyridin-3-yl)phenyl]methanesulfonamide], the Ki is 29.2 nM in experiment [1] and 49.9 nM in experiment [2]. The EC50 in experiment [3] worked out at 643 nM.

For the molecule `Cn1cc(-c2cc(NS(C)(=O)=O)ccc2Oc2ccccc2F)ccc1=O` [Example 239, N-[4-(2-fluorophenoxy)-3-(1-methyl-6-oxo-1,6-dihydropyridin-3-yl)phenyl]methanesulfonamide], the Ki is 32.6 nM in experiment [1] and 39.8 nM in experiment [2]. In addition, the EC50 in experiment [3] was determined as 138 nM.

As to `Cn1cc(-c2cc(NS(C)(=O)=O)ccc2Oc2cc(F)cc(F)c2)ccc1=O` [Example 242, N-[4-(3,5-difluorophenoxy)-3-(1-methyl-6-oxo-1,6-dihydropyridin-3-yl)phenyl]methanesulfonamide], the Ki in experiment [1] was 45 nM; in experiment [2], 338 nM. Also, the EC50 in experiment [3] turned out to be 556 nM.

Take `Cn1cc(-c2cc(NS(C)(=O)=O)ccc2Oc2cccc(Cl)c2)ccc1=O` [Example 243, N-[4-(3-chlorophenoxy)-3-(1-methyl-6-oxo-1,6-dihydropyridin-3-yl)phenyl]methanesulfonamide]: the Ki was 115 nM in experiment [1] and 257 nM in experiment [2]. Also, in experiment [3], the EC50 stood at 279 nM.

On to `Cn1cc(-c2cc(NS(C)(=O)=O)ccc2Oc2cccc(C(F)(F)F)c2)ccc1=O` [Example 244, N-{3-(1-methyl-6-oxo-1,6-dihydropyridin-3-yl)-4-[3-(trifluoromethyl)phenoxy]phenyl}methanesulfonamide], for which the Ki in experiment [1] was 116 nM; in experiment [2], 282 nM. In experiment [3], the EC50 was determined as 481 nM.

As to `Cn1cc(-c2cc(NS(C)(=O)=O)ccc2Oc2cccc(C#N)c2)ccc1=O` [Example 245, N-[4-(3-cyanophenoxy)-3-(1-methyl-6-oxo-1,6-dihydropyridin-3-yl)phenyl]methanesulfonamide], the results for the Ki in experiment [1] and in experiment [2] were 78.6 nM and 439 nM, respectively. In experiment [3], the EC50 came to 1010 nM.

`Cn1cc(-c2cc(NS(C)(=O)=O)ccc2Oc2cccc(F)c2)ccc1=O` [Example 246, N-[4-(3-fluorophenoxy)-3-(1-methyl-6-oxo-1,6-dihydropyridin-3-yl)phenyl]methanesulfonamide]: the values for the Ki in experiment [1] and in experiment [2] were 43.1 nM and 132 nM, respectively. For the same molecule, in experiment [3], the EC50 came to 238 nM.

With `Cn1cc(-c2cc(NS(C)(=O)=O)ccc2OC2CCCCC2)ccc1=O` [Example 247, N-[4-(cyclohexyloxy)-3-(1-methyl-6-oxo-1,6-dihydropyridin-3-yl)phenyl]methanesulfonamide], the Ki in experiment [1] is 22.4 nM; in experiment [2], 194 nM. In addition, the EC50 in experiment [3] was 425 nM.

Consider `Cn1cc(-c2cc(NS(C)(=O)=O)ccc2OC2CCCC2)ccc1=O` [Example 248, N-[4-(cyclopentyloxy)-3-(1-methyl-6-oxo-1,6-dihydropyridin-3-yl)phenyl]methanesulfonamide], for which the Ki in experiment [1] is 156 nM; in experiment [2], 4570 nM. In experiment [3], the EC50 turned out to be 488 nM.

As to `Cn1cc(-c2cc(NS(C)(=O)=O)ccc2OC2CCOC2)ccc1=O` (stereo not drawn) [Example 249, N-[3-(1-methyl-6-oxo-1,6-dihydropyridin-3-yl)-4-(tetrahydrofuran-3-yloxy)phenyl]methanesulfonamide], the Ki in experiment [1] is 86.2 nM; in experiment [2], 701 nM. Moreover, the EC50 in experiment [3] was over 3000 nM.

With `Cn1cc(-c2cc(NS(C)(=O)=O)ccc2OCC2CCOCC2)ccc1=O` [Example 250, N-[3-(1-methyl-6-oxo-1,6-dihydropyridin-3-yl)-4-(tetrahydro-2H-pyran-4-ylmethoxy)phenyl]methanesulfonamide], the Ki was 143 nM in experiment [1] and 12500 nM in experiment [2]. Further, the EC50 in experiment [3] was over 3000 nM.

As for `Cn1cc(-c2cc(NC(=O)c3ccc[nH]3)ccc2Oc2ccccc2)ccc1=O` [Example 251, N-[3-(1-methyl-6-oxo-1,6-dihydropyridin-3-yl)-4-phenoxyphenyl]-1H-pyrrole-2-carboxamide], the values for the Ki in experiment [1] and in experiment [2] were 197 nM and 260 nM, respectively. The EC50 in experiment [3] was 1100 nM.

For `Cn1cc(-c2cc(NC(=O)CNC(=O)OC(C)(C)C)ccc2Oc2ccccc2)ccc1=O` [Example 252, tert-butyl (2-{[3-(1-methyl-6-oxo-1,6-dihydropyridin-3-yl)-4-phenoxyphenyl]amino}-2-oxoethyl)carbamate], the Ki in experiment [1] is 297 nM; in experiment [2], 695 nM. Moreover, the EC50 in experiment [3] was over 3000 nM.

On to `Cn1cc(-c2cc(NC(=O)CN)ccc2Oc2ccccc2)ccc1=O` [Example 253, N-[3-(1-methyl-6-oxo-1,6-dihydropyridin-3-yl)-4-phenoxyphenyl]glycinamide], for which the inhibitory constant (Ki) was 942 nM in experiment [1] and 3290 nM in experiment [2]. The EC50 in experiment [3] is over 3000 nM.

Take `CCNS(=O)(=O)c1ccc(Oc2ccccc2)c(-c2ccc(=O)n(C)c2)c1` [Example 255, N-ethyl-3-(1-methyl-6-oxo-1,6-dihydropyridin-3-yl)-4-phenoxybenzenesulfonamide]: the Ki in experiment [1] was 635 nM; in experiment [2], 142 nM. Also, the EC50 in experiment [3] was over 3000 nM.

Turning to `Cn1cc(-c2cc(S(N)(=O)=O)ccc2Oc2ccccc2)ccc1=O` [Example 256, 3-(1-methyl-6-oxo-1,6-dihydropyridin-3-yl)-4-phenoxybenzenesulfonamide], the Ki in experiment [1] is 219 nM; in experiment [2], 93.6 nM. Moreover, the EC50 in experiment [3] came to 1060 nM.

Turning to `COc1cc(=O)n(C)cc1-c1ccccc1Oc1ccccc1` [Example 258, 4-methoxy-1-methyl-5-(2-phenoxyphenyl)pyridin-2(1H)-one], the inhibition constant (Ki) in experiment [1] is 730 nM; in experiment [2] it was 382 nM. In experiment [3], the EC50 came out at 1510 nM.

For `COc1cc(=O)n(C)cc1-c1cc(NS(C)(=O)=O)ccc1Oc1ccccc1` [Example 259, N-[3-(4-methoxy-1-methyl-6-oxo-1,6-dihydropyridin-3-yl)-4-phenoxyphenyl]methanesulfonamide], the Ki is 28.6 nM in experiment [1] and 9.41 nM in experiment [2]. Moreover, the EC50 in experiment [3] was 130 nM.

Consider `Cc1cc(-c2ccccc2Oc2ccccc2)c[nH]c1=O` [Example 260, 3-methyl-5-(2-phenoxyphenyl)pyridin-2(1H)-one], for which the inhibition constant (Ki) in experiment [1] is 216 nM; in experiment [2], 406 nM. Also, in experiment [3], the EC50 is 2350 nM.

`CC(=O)Nc1ccc(Oc2ccccc2)c(-c2c[nH]c(=O)c(C)c2)c1` [Example 262, N-[3-(5-methyl-6-oxo-1,6-dihydropyridin-3-yl)-4-phenoxyphenyl]acetamide]: the Ki in experiment [1] was 77.9 nM; in experiment [2], 290 nM. In addition, the EC50 in experiment [3] is 783 nM.

Turning to `Cc1cc(-c2cc(NS(C)(=O)=O)ccc2Oc2ccc(F)cc2F)c[nH]c1=O` [Example 263, N-[4-(2,4-difluorophenoxy)-3-(5-methyl-6-oxo-1,6-dihydropyridin-3-yl)phenyl]methanesulfonamide], the Ki in experiment [1] was 48.8 nM; in experiment [2], 121 nM. The EC50 in experiment [3] worked out at 304 nM.
